Experimental data taken from PMC12669672, “Structural insights into selective and dual antagonism of EP2 and EP4 prostaglandin receptors” (The EMBO Journal, 2025).
“And” between values parts separate entries of the source, which are not always exact repeats. Equal entries are not always repeated.

How the values were obtained:
Type in all cases: cell-based
[1] = biological target: T1, EP4 S319A (Homo sapiens, UniProt P35408, S319A); assay: GloSensor cAMP assay, antagonism of PGE2-induced cAMP; details: for cAMP activity (∆pIC50 from EP4 WT): Grapiprant, S319A; for ΔpIC50: PGE2 0.5 nM, pIC50 mutant - pIC50 WT, mean
T1 construct: The full-length EP2 or EP4 was cloned into the pcDNA3.1 vector (Invitrogen), incorporating an N-terminal FLAG tag; expressed in transfected cells; host or cells: AD293
T1 sequence (P35408 whole entry S319A): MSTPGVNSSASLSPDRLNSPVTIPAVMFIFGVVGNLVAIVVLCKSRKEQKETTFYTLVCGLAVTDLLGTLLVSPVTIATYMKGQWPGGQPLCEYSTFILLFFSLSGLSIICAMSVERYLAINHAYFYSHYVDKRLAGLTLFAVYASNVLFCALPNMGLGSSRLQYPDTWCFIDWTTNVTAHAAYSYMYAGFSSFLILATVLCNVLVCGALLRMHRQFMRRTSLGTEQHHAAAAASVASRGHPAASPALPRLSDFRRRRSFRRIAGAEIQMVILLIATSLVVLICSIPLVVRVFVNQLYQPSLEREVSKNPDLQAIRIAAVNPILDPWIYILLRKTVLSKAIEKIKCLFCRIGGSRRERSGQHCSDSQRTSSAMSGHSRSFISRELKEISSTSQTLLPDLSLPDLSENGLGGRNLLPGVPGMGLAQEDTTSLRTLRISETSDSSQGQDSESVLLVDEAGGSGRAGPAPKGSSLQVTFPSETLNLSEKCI

[2] = biological target: T2, EP4 V320A (Homo sapiens, UniProt P35408, V320A); assay: as above; details: for ΔpIC50: PGE2 0.5 nM, pIC50 mutant - pIC50 WT, mean
T2 construct: The full-length EP2 or EP4 was cloned into the pcDNA3.1 vector (Invitrogen), incorporating an N-terminal FLAG tag; expressed in transfected cells; host or cells: AD293
T2 sequence (P35408 whole entry V320A): as the sequence (P35408 whole entry S319A) above, with A319S, V320A counted along it

[3] = biological target: T3, EP4 V72A (Homo sapiens, UniProt P35408, V72A); assay: as above; details: for cAMP activity (∆pIC50 from EP4 WT): Grapiprant, V72A; for ΔpIC50: PGE2 0.5 nM, pIC50 mutant - pIC50 WT, mean
T3 construct: The full-length EP2 or EP4 was cloned into the pcDNA3.1 vector; FLAG (N); expressed in transfected cells; host or cells: AD293 cells
T3 sequence (P35408 whole entry V72A): as the sequence (P35408 whole entry S319A) above, with V72A, A319S counted along it

[4] = biological target: T4, constitutively active EP4 WT (Homo sapiens, UniProt P35408); assay: GloSensor cAMP assay, inhibition of constitutive activity
T4 construct: The full-length EP2 or EP4 was cloned into the pcDNA3.1 vector (Invitrogen), incorporating an N-terminal FLAG tag; expressed in transfected cells; host or cells: AD293
T4 sequence (P35408 whole entry): as the sequence (P35408 whole entry S319A) above, with A319S counted along it

[5] = 1 h, Grapiprant log([M]) -7, read-out: % cAMP activity (normalized to WT)
[6] = 1 h, Grapiprant log([M]) -8, read-out: % cAMP activity (normalized to WT)
[7] = 1 h, Grapiprant log([M]) -9, read-out: % cAMP activity (normalized to WT)
[8] = 1 h, Grapiprant log([M]) -10, read-out: % cAMP activity (normalized to WT)
[9] = 1 h, Grapiprant log([M]) -11, read-out: % cAMP activity (normalized to WT)
[10] = 1 h, Grapiprant log([M]) -12, read-out: % cAMP activity (normalized to WT)

CCc1nc2c(C)nc(C)cc2n1-c1ccc(CCNC(=O)NS(=O)(=O)c2ccc(C)cc2)cc1 [Grapiprant]
IC50 [1]: 186 nM
remaining activity at 10 µM ([1]; 1 h, Grapiprant log([M]) -5, read-out: % cAMP activity (normalized to WT)): 3.59%
remaining activity at 1 µM ([1]; 1 h, Grapiprant log([M]) -6, read-out: % cAMP activity (normalized to WT)): 3.85%
remaining activity at 0.1 µM [1, 5]: 22.9%
remaining activity at 0.01 µM [1, 6]: 31.9%
remaining activity at 0.001 µM [1, 7]: 32.1%
remaining activity at 0.0001 µM [1, 8]: 27.9%
remaining activity at 10 pM [1, 9]: 33%
remaining activity at 1 pM [1, 10]: 28.4%
cAMP activity (∆pIC50 from EP4 WT) ([1]; Mean): -0.645
cAMP activity (∆pIC50 from EP4 WT) ([1]; single experiments 1st-3rd): -0.523 and -0.642 and -0.769
ΔpIC50 [1]: -0.64 ± 0.07
ΔpIC50 ([1]; listed as grapiprant): reduced the potency
IC50 [2]: 339 nM
remaining activity at 0.0001 µM [2, 8]: 39.6%
cAMP activity (∆pIC50 from EP4 WT) ([2]; Grapiprant, V320A, Mean): -0.775
ΔpIC50 [2]: -0.78 ± 0.12
ΔpIC50 ([2]; listed as grapiprant): reduced the potency
IC50 [3]: 110 nM
remaining activity at 0.1 µM [3, 5]: 25.9%
remaining activity at 0.01 µM [3, 6]: 35.8%
remaining activity at 0.001 µM [3, 7]: 45%
remaining activity at 0.0001 µM [3, 8]: 46.7%
remaining activity at 10 pM [3, 9]: 54.1%
remaining activity at 1 pM [3, 10]: 41%
cAMP activity (∆pIC50 from EP4 WT) ([3]; Mean): -0.294
cAMP activity (∆pIC50 from EP4 WT) ([3]; single experiments 1st-3rd): -0.217 and -0.413 and -0.252
ΔpIC50 [3]: -0.29 ± 0.06
ΔpIC50 ([3]; listed as grapiprant): reduced the potency
IC50 [4]: 4.27 nM
remaining activity at 0.1 µM ([4]; 1 h, Grapiprant log([M]) -7.00, EP4-WT, read-out: % cAMP activity (normalized to WT)): 4.26%
remaining activity at 0.01 µM ([4]; 1 h, Grapiprant log([M]) -8.00, EP4-WT, read-out: % cAMP activity (normalized to WT)): 24.2%
remaining activity at 0.001 µM ([4]; 1 h, Grapiprant log([M]) -9.00, EP4-WT, read-out: % cAMP activity (normalized to WT)): 84.9%
remaining activity at 0.0001 µM ([4]; 1 h, Grapiprant log([M]) -10.00, EP4-WT, read-out: % cAMP activity (normalized to WT)): 92.5%
remaining activity at 10 pM ([4]; 1 h, Grapiprant log([M]) -11.00, EP4-WT, read-out: % cAMP activity (normalized to WT)): 101%
remaining activity at 1 pM ([4]; 1 h, Grapiprant log([M]) -12.00, EP4-WT, read-out: % cAMP activity (normalized to WT)): 101%
Grapiprant cAMP activity (∆pIC50 from EP4 WT) ([4]; WT, single experiments 1st-3rd): 0.061 and -0.077 and -0.012
